Results taken from patent US8192962B2, “Processes for detecting toxic substances” (Daikin Industries, Ltd., priority 2001, dated 2012).

System: Metabolism protein genes
Assay: DNA chip mRNA expression in yeast, metabolism protein genes (Table 7)
Format: cell-based, Saccharomyces cerevisiae S288C
In short: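 Ratios compare mRNA levels in stressed and control S. cerevisiae. Each toxicant was applied for two hours to log-phase cultures at 25° C. at a sub-lethal, growth-inhibiting level; fluorescent cDNA (Cy3- or Cy5-dUTP) was hybridized to a genome-wide yeast chip for over 12 h at 65° C.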

## manganese ethylenebis(dithiocarbamate) [(8)]
Yeast gene YAL012W
  The level of expressed mRNA in the presence of chemical substance/The level of expressed mRNA in the absence of chemical substance: 0.7
Yeast gene YAL038W
  The level of expressed mRNA in the presence of chemical substance/The level of expressed mRNA in the absence of chemical substance: 1.1
Yeast gene YBR003W
  level of expressed mRNA in the presence/in the absence of chemical substance: 0.9
Yeast gene YBR011C
  level of expressed mRNA in the presence/in the absence of chemical substance: 1.3
Yeast gene YBR020W
  level of expressed mRNA in the presence/in the absence of chemical substance: 1.0
Yeast gene YBR023C
  The level of expressed mRNA in the presence of chemical substance/The level of expressed mRNA in the absence of chemical substance: 0.5
Yeast gene YBR029C
  The level of expressed mRNA in the presence of chemical substance/The level of expressed mRNA in the absence of chemical substance: 0.7
Yeast gene YBR183W
  The level of expressed mRNA in the presence of chemical substance/The level of expressed mRNA in the absence of chemical substance: 1.0
Yeast gene YBR222C
  The level of expressed mRNA in the presence of chemical substance/The level of expressed mRNA in the absence of chemical substance: 0.6
Yeast gene YBR256C
  The level of expressed mRNA in the presence of chemical substance/The level of expressed mRNA in the absence of chemical substance: 2.3
Yeast gene YCL009C
  The level of expressed mRNA in the presence of chemical substance/The level of expressed mRNA in the absence of chemical substance: 1.1
Yeast gene YCL064C
  The level of expressed mRNA in the presence of chemical substance/The level of expressed mRNA in the absence of chemical substance: 2.4
Yeast gene YCR010C
  level of expressed mRNA in the presence/in the absence of chemical substance: 0.8
Yeast gene YCR034W
  level of expressed mRNA in the presence/in the absence of chemical substance: 0.9
Yeast gene YCR048W
  The level of expressed mRNA in the presence of chemical substance/The level of expressed mRNA in the absence of chemical substance: 0.8
Yeast gene YCR098C
  The level of expressed mRNA in the presence of chemical substance/The level of expressed mRNA in the absence of chemical substance: 1.0
Yeast gene YDR019C
  The level of expressed mRNA in the presence of chemical substance/The level of expressed mRNA in the absence of chemical substance: 0.7
Yeast gene YDR050C
  level of expressed mRNA in the presence/in the absence of chemical substance: 1.3
Yeast gene YDR073W
  level of expressed mRNA in the presence/in the absence of chemical substance: 1.3
Yeast gene YDR123C
  level of expressed mRNA in the presence/in the absence of chemical substance: 1.3
Yeast gene YDR178W
  level of expressed mRNA in the presence/in the absence of chemical substance: 0.9
Yeast gene YDR277C
  level of expressed mRNA in the presence/in the absence of chemical substance: 1.7
Yeast gene YDR284C
  level of expressed mRNA in the presence/in the absence of chemical substance: 0.9
Yeast gene YDR345C
  level of expressed mRNA in the presence/in the absence of chemical substance: 1.2
Yeast gene YDR380W
  The level of expressed mRNA in the presence of chemical substance/The level of expressed mRNA in the absence of chemical substance: 0.2
Yeast gene YDR400W
  level of expressed mRNA in the presence/in the absence of chemical substance: 1.4
Yeast gene YDR408C
  level of expressed mRNA in the presence/in the absence of chemical substance: 0.7
Yeast gene YDR483W
  level of expressed mRNA in the presence/in the absence of chemical substance: 1.0
Yeast gene YDR497C
  The level of expressed mRNA in the presence of chemical substance/The level of expressed mRNA in the absence of chemical substance: 0.6
Yeast gene YDR502C
  The level of expressed mRNA in the presence of chemical substance/The level of expressed mRNA in the absence of chemical substance: 0.9
Yeast gene YDR516C
  The level of expressed mRNA in the presence of chemical substance/The level of expressed mRNA in the absence of chemical substance: 1.3
Yeast gene YEL063C
  level of expressed mRNA in the presence/in the absence of chemical substance: 0.6
Yeast gene YER015W
  level of expressed mRNA in the presence/in the absence of chemical substance: 1.1
Yeast gene YER026C
  The level of expressed mRNA in the presence of chemical substance/The level of expressed mRNA in the absence of chemical substance: 0.8
Yeast gene YER053C
  The level of expressed mRNA in the presence of chemical substance/The level of expressed mRNA in the absence of chemical substance: 1.3
Yeast gene YER069W
  The level of expressed mRNA in the presence of chemical substance/The level of expressed mRNA in the absence of chemical substance: 1.5
Yeast gene YER081W
  level of expressed mRNA in the presence/in the absence of chemical substance: 0.6
Yeast gene YER096W
  The level of expressed mRNA in the presence of chemical substance/The level of expressed mRNA in the absence of chemical substance: 1.0
Yeast gene YER120W
  level of expressed mRNA in the presence/in the absence of chemical substance: 0.6
Yeast gene YER178W
  The level of expressed mRNA in the presence of chemical substance/The level of expressed mRNA in the absence of chemical substance: 0.8
Yeast gene YFL011W
  level of expressed mRNA in the presence/in the absence of chemical substance: 0.8
Yeast gene YFL014W
  The level of expressed mRNA in the presence of chemical substance/The level of expressed mRNA in the absence of chemical substance: 3.4
Yeast gene YFL030W
  The level of expressed mRNA in the presence of chemical substance/The level of expressed mRNA in the absence of chemical substance: 1.6
Yeast gene YFL031W
  The level of expressed mRNA in the presence of chemical substance/The level of expressed mRNA in the absence of chemical substance: 0.7
Yeast gene YFL056C
  The level of expressed mRNA in the presence of chemical substance/The level of expressed mRNA in the absence of chemical substance: 18.5
Yeast gene YFL057C
  The level of expressed mRNA in the presence of chemical substance/The level of expressed mRNA in the absence of chemical substance: 18.0
Yeast gene YFR047C
  The level of expressed mRNA in the presence of chemical substance/The level of expressed mRNA in the absence of chemical substance: 1.0
Yeast gene YGL012W
  level of expressed mRNA in the presence/in the absence of chemical substance: 0.8
Yeast gene YGL022W
  The level of expressed mRNA in the presence of chemical substance/The level of expressed mRNA in the absence of chemical substance: 0.4
Yeast gene YGL115W
  level of expressed mRNA in the presence/in the absence of chemical substance: 1.0
Yeast gene YGL126W
  The level of expressed mRNA in the presence of chemical substance/The level of expressed mRNA in the absence of chemical substance: 0.7
Yeast gene YGL205W
  level of expressed mRNA in the presence/in the absence of chemical substance: 1.2
Yeast gene YGL209W
  The level of expressed mRNA in the presence of chemical substance/The level of expressed mRNA in the absence of chemical substance: 1.1
Yeast gene YGL248W
  The level of expressed mRNA in the presence of chemical substance/The level of expressed mRNA in the absence of chemical substance: 0.8
Yeast gene YGR037C
  The level of expressed mRNA in the presence of chemical substance/The level of expressed mRNA in the absence of chemical substance: 1.4
Yeast gene YGR055W
  The level of expressed mRNA in the presence of chemical substance/The level of expressed mRNA in the absence of chemical substance: 1.1
Yeast gene YGR096W
  level of expressed mRNA in the presence/in the absence of chemical substance: 1.0
Yeast gene YGR191W
  level of expressed mRNA in the presence/in the absence of chemical substance: 0.7
Yeast gene YGR194C
  The level of expressed mRNA in the presence of chemical substance/The level of expressed mRNA in the absence of chemical substance: 1.2
Yeast gene YGR204W
  level of expressed mRNA in the presence/in the absence of chemical substance: 0.4
Yeast gene YGR256W
  The level of expressed mRNA in the presence of chemical substance/The level of expressed mRNA in the absence of chemical substance: 2.2
Yeast gene YGR282C
  The level of expressed mRNA in the presence of chemical substance/The level of expressed mRNA in the absence of chemical substance: 1.0
Yeast gene YGR288W
  level of expressed mRNA in the presence/in the absence of chemical substance: 1.0
Yeast gene YHR025W
  level of expressed mRNA in the presence/in the absence of chemical substance: 0.8
Yeast gene YHR111W
  The level of expressed mRNA in the presence of chemical substance/The level of expressed mRNA in the absence of chemical substance: 1.3
Yeast gene YHR123W
  level of expressed mRNA in the presence/in the absence of chemical substance: 0.8
Yeast gene YHR137W
  The level of expressed mRNA in the presence of chemical substance/The level of expressed mRNA in the absence of chemical substance: 0.4
Yeast gene YHR174W
  The level of expressed mRNA in the presence of chemical substance/The level of expressed mRNA in the absence of chemical substance: 1.2
Yeast gene YHR176W
  The level of expressed mRNA in the presence of chemical substance/The level of expressed mRNA in the absence of chemical substance: 1.3
Yeast gene YHR210C
  level of expressed mRNA in the presence/in the absence of chemical substance: 1.3
Yeast gene YIL006W
  level of expressed mRNA in the presence/in the absence of chemical substance: 0.6
Yeast gene YIL045W
  The level of expressed mRNA in the presence of chemical substance/The level of expressed mRNA in the absence of chemical substance: 1.1
Yeast gene YIL107C
  The level of expressed mRNA in the presence of chemical substance/The level of expressed mRNA in the absence of chemical substance: 1.3
Yeast gene YIL154C
  The level of expressed mRNA in the presence of chemical substance/The level of expressed mRNA in the absence of chemical substance: 0.6
Yeast gene YIL155C
  The level of expressed mRNA in the presence of chemical substance/The level of expressed mRNA in the absence of chemical substance: 1.0
Yeast gene YIR034C
  The level of expressed mRNA in the presence of chemical substance/The level of expressed mRNA in the absence of chemical substance: 1.7
Yeast gene YIR036C
  The level of expressed mRNA in the presence of chemical substance/The level of expressed mRNA in the absence of chemical substance: 1.0
Yeast gene YJL031C
  The level of expressed mRNA in the presence of chemical substance/The level of expressed mRNA in the absence of chemical substance: 1.8
Yeast gene YJL068C
  The level of expressed mRNA in the presence of chemical substance/The level of expressed mRNA in the absence of chemical substance: 1.1
Yeast gene YJL088W
  The level of expressed mRNA in the presence of chemical substance/The level of expressed mRNA in the absence of chemical substance: 1.3
Yeast gene YJL099W
  The level of expressed mRNA in the presence of chemical substance/The level of expressed mRNA in the absence of chemical substance: 1.0
Yeast gene YJL121C
  level of expressed mRNA in the presence/in the absence of chemical substance: 1.0
Yeast gene YJL167W
  level of expressed mRNA in the presence/in the absence of chemical substance: 1.5
Yeast gene YJL172W
  The level of expressed mRNA in the presence of chemical substance/The level of expressed mRNA in the absence of chemical substance: 0.7
Yeast gene YJL216C
  level of expressed mRNA in the presence/in the absence of chemical substance: 1.9
Yeast gene YJL219W
  The level of expressed mRNA in the presence of chemical substance/The level of expressed mRNA in the absence of chemical substance: 1.5
Yeast gene YJR077C
  level of expressed mRNA in the presence/in the absence of chemical substance: 0.8
Yeast gene YJR137C
  The level of expressed mRNA in the presence of chemical substance/The level of expressed mRNA in the absence of chemical substance: 1.6
Yeast gene YJR143C
  level of expressed mRNA in the presence/in the absence of chemical substance: 0.7
Yeast gene YJR148W
  The level of expressed mRNA in the presence of chemical substance/The level of expressed mRNA in the absence of chemical substance: 0.6
